The values that follow come from ChEMBL document CHEMBL4308865, “Discovery of 4-alkoxy-6-methylpicolinamide negative allosteric modulators of metabotropic glutamate receptor subtype 5” (Bioorg Med Chem Lett, 2019).

The target of assay [1] is T1, Metabotropic glutamate receptor 5 (Homo sapiens, UniProt P41594). In words: Negative allosteric modulation of human mGlu5 receptor assessed as inhibition of glutamate induced-calcium mobilization. Type of assay: functional. For orientation: Calcium assays in cells follow changes in intracellular calcium, usually with a dye or a luminescent sensor.
Target sequence in this assay (P41594 whole entry): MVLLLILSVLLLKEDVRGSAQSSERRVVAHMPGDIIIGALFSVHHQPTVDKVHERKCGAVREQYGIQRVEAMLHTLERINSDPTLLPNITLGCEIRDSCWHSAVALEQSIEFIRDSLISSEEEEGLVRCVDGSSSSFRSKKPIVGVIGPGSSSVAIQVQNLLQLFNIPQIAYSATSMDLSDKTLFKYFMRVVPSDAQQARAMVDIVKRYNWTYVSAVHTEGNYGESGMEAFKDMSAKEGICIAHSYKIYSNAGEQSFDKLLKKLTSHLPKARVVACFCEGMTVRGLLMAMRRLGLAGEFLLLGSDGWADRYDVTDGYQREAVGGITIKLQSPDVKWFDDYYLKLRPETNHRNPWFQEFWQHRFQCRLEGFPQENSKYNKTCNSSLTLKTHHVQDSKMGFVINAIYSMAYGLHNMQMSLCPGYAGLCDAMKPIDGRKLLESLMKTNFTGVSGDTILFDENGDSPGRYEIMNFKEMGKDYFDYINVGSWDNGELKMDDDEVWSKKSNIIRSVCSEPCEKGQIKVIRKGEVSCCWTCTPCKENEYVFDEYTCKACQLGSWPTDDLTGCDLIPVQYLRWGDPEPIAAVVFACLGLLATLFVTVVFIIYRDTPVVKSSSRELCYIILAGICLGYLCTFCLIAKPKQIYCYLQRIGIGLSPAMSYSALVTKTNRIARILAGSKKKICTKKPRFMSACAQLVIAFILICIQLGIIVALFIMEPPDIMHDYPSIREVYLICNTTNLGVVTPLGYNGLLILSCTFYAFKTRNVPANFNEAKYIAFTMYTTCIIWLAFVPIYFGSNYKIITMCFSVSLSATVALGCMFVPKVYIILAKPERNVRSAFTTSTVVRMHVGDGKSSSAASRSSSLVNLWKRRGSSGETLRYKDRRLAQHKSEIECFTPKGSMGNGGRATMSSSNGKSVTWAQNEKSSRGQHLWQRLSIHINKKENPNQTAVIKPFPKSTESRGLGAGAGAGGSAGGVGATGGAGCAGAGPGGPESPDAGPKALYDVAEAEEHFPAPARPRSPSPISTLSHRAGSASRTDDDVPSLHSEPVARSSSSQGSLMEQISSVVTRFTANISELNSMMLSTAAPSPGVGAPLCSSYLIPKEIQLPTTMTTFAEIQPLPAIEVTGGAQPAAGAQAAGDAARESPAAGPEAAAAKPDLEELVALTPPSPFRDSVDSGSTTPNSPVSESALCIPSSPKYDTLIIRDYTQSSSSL
Assay [2] deals with T1, Metabotropic glutamate receptor 5. Briefly: Negative allosteric modulation of human mGlu5 receptor assessed as inhibition of glutamate induced-calcium mobilization relative to glutamate. The class given is functional.
Target sequence in this assay (P41594 21-1212 limits assumed): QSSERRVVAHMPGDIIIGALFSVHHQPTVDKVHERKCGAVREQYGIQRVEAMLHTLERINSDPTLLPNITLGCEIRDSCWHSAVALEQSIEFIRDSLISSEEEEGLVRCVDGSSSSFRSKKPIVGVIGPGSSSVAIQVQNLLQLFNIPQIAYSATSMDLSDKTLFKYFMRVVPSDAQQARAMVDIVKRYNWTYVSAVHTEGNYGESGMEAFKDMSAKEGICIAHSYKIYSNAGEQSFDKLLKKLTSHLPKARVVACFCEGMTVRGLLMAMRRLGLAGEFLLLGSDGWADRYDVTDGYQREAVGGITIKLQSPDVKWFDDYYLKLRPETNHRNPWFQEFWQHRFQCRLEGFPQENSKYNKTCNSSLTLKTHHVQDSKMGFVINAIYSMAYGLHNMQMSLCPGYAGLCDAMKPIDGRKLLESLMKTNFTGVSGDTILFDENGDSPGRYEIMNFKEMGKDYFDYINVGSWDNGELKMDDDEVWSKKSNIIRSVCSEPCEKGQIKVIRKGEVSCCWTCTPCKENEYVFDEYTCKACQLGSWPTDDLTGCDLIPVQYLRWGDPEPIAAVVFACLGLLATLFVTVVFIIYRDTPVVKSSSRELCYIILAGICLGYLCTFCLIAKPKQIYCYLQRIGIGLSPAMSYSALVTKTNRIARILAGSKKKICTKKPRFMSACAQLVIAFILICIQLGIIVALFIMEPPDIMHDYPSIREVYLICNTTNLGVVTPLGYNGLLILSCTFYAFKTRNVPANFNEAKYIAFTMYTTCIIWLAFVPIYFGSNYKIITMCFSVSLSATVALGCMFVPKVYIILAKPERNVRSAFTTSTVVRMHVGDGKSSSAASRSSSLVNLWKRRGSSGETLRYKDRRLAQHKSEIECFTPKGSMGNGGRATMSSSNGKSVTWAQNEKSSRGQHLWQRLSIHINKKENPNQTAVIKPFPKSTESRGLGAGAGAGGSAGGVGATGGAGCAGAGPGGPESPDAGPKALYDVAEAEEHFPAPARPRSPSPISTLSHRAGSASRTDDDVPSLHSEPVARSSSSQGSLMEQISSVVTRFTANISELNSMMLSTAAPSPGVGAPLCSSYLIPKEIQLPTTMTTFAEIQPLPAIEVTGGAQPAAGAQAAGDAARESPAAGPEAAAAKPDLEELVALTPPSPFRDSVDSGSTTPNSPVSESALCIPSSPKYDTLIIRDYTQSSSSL

For orientation: IC50 means the concentration needed to halve the response being measured.

`Cc1cc(O[C@H]2CO[C@@H](C)C2)cc(C(=O)Nc2nc(C)cs2)n1`: the IC50 in assay [1] was determined as 684 nM. Further, in assay [2], the Efficacy stood at 1.1%. With `Cc1cc(OC2CCCC2)cc(C(=O)Nc2ccccn2)n1`, the IC50 in assay [1] was 182 nM. For the same compound, the Efficacy in assay [2] turned out to be 2.1%. For `Cc1cc(OC2COC2)cc(C(=O)Nc2ccccn2)n1`, the IC50 in assay [1] stood at 66 nM. The Efficacy in assay [2] came out at 1.3%. For `Cc1cc(OC2CCCCC2)cc(C(=O)Nc2ccccn2)n1`, in assay [1], the IC50 turned out to be 1420 nM. The Efficacy in assay [2] turned out to be 2.1%. On to `Cc1cc(OC2CCCOC2)cc(C(=O)Nc2nc(C)cs2)n1` (stereo not given), for which, in assay [1], the IC50 was 140 nM. The Efficacy in assay [2] stood at 0.9%.

On to `Cc1cc(OC2CCCC2)cc(C(=O)Nc2ccc(F)cn2)n1`, for which the IC50 in assay [1] amounted to 3660 nM. In assay [2], the Efficacy is -0.7%. Regarding `COC[C@H](C)Oc1cc(C)nc(C(=O)Nc2nc(C)cs2)c1`, the IC50 in assay [1] was determined as 932 nM. Still for that read-out and setting: as for `Cc1cc(OC2CS(=O)(=O)C2)cc(C(=O)Nc2nc(C)cs2)n1`, the figure is 392 nM. Take `Cc1cc(OC2CCC2)cc(C(=O)Nc2ccc(F)cn2)n1`: the IC50 in assay [1] was 182 nM. Further, the Efficacy in assay [2] is 1.6%. The matching figures for `Cc1cc(O[C@@H]2CO[C@H](C)C2)cc(C(=O)Nc2nc(C)cs2)n1`: 112 nM and 2.1%. As to `Cc1cc(O[C@H]2CCOC2)cc(C(=O)Nc2nc(C)cs2)n1`, the IC50 in assay [1] was found to be 107 nM. The Efficacy in assay [2] is 1.4%.

With `Cc1cc(OC2COC2)cc(C(=O)Nc2nc(C)cs2)n1`, in assay [1], the IC50 was 51 nM. The Efficacy in assay [2] turned out to be 0.5%. `Cc1cc(OC2C[S+]([O-])C2)cc(C(=O)Nc2nc(C)cs2)n1` (stereo not given): in assay [1], the IC50 came to 145 nM. For `Cc1cc(OC2CCCCC2)cc(C(=O)Nc2ccc(F)cn2)n1`, the IC50 in assay [1] was found to be 3350 nM. In assay [2], the Efficacy was determined as 10.4%. In the case of `Cc1cc(OC2CCCOC2)cc(C(=O)Nc2ccc(F)cn2)n1` (stereo not given), the IC50 in assay [1] amounted to 497 nM. The Efficacy in assay [2] turned out to be 0.2%. `Cc1cc(OC2CCOCC2)cc(C(=O)Nc2nc(C)cs2)n1`: in assay [1], the IC50 amounted to 446 nM. Moreover, in assay [2], the Efficacy turned out to be 0.7%. For `Cc1cc(OCC2CCCO2)cc(C(=O)Nc2ccccn2)n1` (stereo not given) the same measures were 725 nM and 0.8%.

Regarding `COCOc1cc(C)nc(C(=O)Nc2ccc(F)cn2)c1`, the IC50 in assay [1] came out at 694 nM. Moreover, the Efficacy in assay [2] was 0.1%. Take `Cc1cc(OC2CCOCC2)cc(C(=O)Nc2ccc(F)cn2)n1`: in assay [1], the IC50 came out at 1960 nM. In addition, in assay [2], the Efficacy is -0.2%.

In the case of `Cc1cc(O[C@H]2CO[C@H](C)C2)cc(C(=O)Nc2nc(C3CC3)cs2)n1`, the IC50 in assay [1] was 899 nM. Further, in assay [2], the Efficacy was found to be 1.3%. Consider `Cc1cc(OCC2CCCO2)cc(C(=O)Nc2nc(C)cs2)n1` (stereo not given), for which, in assay [1], the IC50 turned out to be 273 nM. The Efficacy in assay [2] was determined as 1.5%. With `Cc1cc(O[C@H]2CO[C@H](C)C2)cc(C(=O)Nc2ccc(F)cn2)n1`, in assay [1], the IC50 came to 175 nM. For the same compound, the Efficacy in assay [2] stood at 1.3%.

On to `Cc1cc(OCC2CCOC2)cc(C(=O)Nc2nc(C)cs2)n1` (stereo not given), for which the IC50 in assay [1] turned out to be 200 nM. Further, the Efficacy in assay [2] was found to be 1.1%. For the compound `CO[C@@H](C)COc1cc(C)nc(C(=O)Nc2nc(C)cs2)c1`, the IC50 in assay [1] amounted to 1050 nM. Consider `CC(=O)N1CC(Oc2cc(C)nc(C(=O)Nc3nc(C)cs3)c2)C1`, for which the IC50 in assay [1] amounted to 388 nM. In the case of `Cc1cc(OC2CCSC2)cc(C(=O)Nc2nc(C)cs2)n1` (stereo not given), the IC50 in assay [1] was found to be 77 nM.

On to `Cc1cc(O[C@@H]2CO[C@@H](C)C2)cc(C(=O)Nc2nc(C)cs2)n1`, for which the 50% inhibitory concentration (IC50) in assay [1] stood at 395 nM. For the same compound, the Efficacy in assay [2] came out at 1.7%. In the case of `Cc1cc(OCC2CCOC2)cc(C(=O)Nc2ccc(F)cn2)n1` (stereo not given), in assay [1], the IC50 was 700 nM. In addition, the Efficacy in assay [2] stood at 1%. Consider `Cc1cc(OC2CCCOC2)cc(C(=O)Nc2ccccn2)n1` (stereo not given), for which, in assay [1], the IC50 came out at 224 nM. Also, the Efficacy in assay [2] amounted to 0.7%. With `Cc1cc(OC2CN(S(C)(=O)=O)C2)cc(C(=O)Nc2nc(C)cs2)n1`, the IC50 in assay [1] came out at 504 nM. Still for that read-out and setting: as for `COC[C@@H](C)Oc1cc(C)nc(C(=O)Nc2nc(C)cs2)c1`, the figure is 1030 nM; as for `Cc1cc(OC2CSC2)cc(C(=O)Nc2nc(C)cs2)n1`, 31 nM.
